In patent publication US10104891B2 (priority 2014, dated 2018):

Key:
Format in all cases: in vivo
Phytophthora infestans = experiment: whole plant or invertebrate; conditions: Phytophthora infestans, in Solanum lycopersicum, 96 h, read-out: control value (Test 1)
Pythium graminicola = experiment: Test 4: control effect against rice damping-off by the Pythium fungus (soil lavage); conditions: 1,000 ppm, 2.5 ml test suspension drenched on contaminated soil, rice (koshihikari)
How it was run: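 Compound at 1,000 ppm in 1/5000 Tween20 was drenched (2.5 ml) onto Koshihikari rice seeds, 3 pre-sprouted seeds per cell, sown in soil infested with Pythium graminicola (5 g/kg). Regime: 28 °C for 72 h, 5 °C for 2 days, then 25 °C for 14 days. Dead and stunted seedlings were scored into an onset rate, and control value = (1 − treated/untreated) × 100.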

[1] = tested on: Pseudoperonospora cubensis; experiment: Test 2: control effect against cucumber downy mildew; conditions: Pseudoperonospora cubensis, 120 h, control value vs untreated section
How it was run: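 Protective test: zoospores (1.0×10^4 units/ml) misted one day after applying a 4 ppm suspension (wettable powder diluted in 1/5000 Tween20) to 2-leaf cucumber, Sagami hanjiro. After 16 hr at 22° C humid incubation, leaf lesion area read at day 5, expressed as control value versus untreated leaves.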

Plasmopara viticola = experiment: Test 3: control effect against grape downy mildew; conditions: Plasmopara viticola, 120 h, control value vs untreated section
How it was run: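 Leaf lesion area, scored 5 days after inoculation and compared with untreated plants, gives the control value. Inoculation used P. viticola zoospores (1.0×10^4 units/ml) with a 16 hr moist incubation at 22° C. It followed by one day a spray of 4 ppm compound (wettable powder in Tween20) onto Neomuscat seedlings.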

Row | Compound | pest or weed control at 4 µg/mL (Phytophthora infestans) [%] | pest or weed control at 1000 ppm (Pythium graminicola) [%] | pest or weed control at 4 µg/mL [1] [%] | pest or weed control at 4 µg/mL (Plasmopara viticola) [%]
1 | CS(=O)(=O)Oc1ccc(F)c2c1COC(c1csc(C3CCN(C(=S)Cn4nc(C(F)F)cc4C(F)F)CC3)n1)OC2 (stereo not shown) [Compound 1-158, 4-[4-(6-fluoro-9-methylsulfonyloxy-1,5-dihydro-3H-2,4-benzodioxepin-3-yl)-2-thiazolyl]-1-[2-[3,5-bis(difluoromethyl)-1H-pyrazole-1-yl]thioacetyl]piperidine] | 100 | ≥ 90 | 100 | 100
2 | Cc1ccc(C)c(CC(=O)N2CCC(c3nc(C4OCc5cccc(OS(C)(=O)=O)c5CO4)cs3)CC2)c1 (stereo not shown) [Compound 2-1, 4-[4-(6-methylsulfonyloxy-1,5-dihydro-3H-2,4-benzodioxepin-3-yl)-2-thiazolyl]-1-[2-(2,5-dimethylphenyl)acetyl]piperidine] | 100 | ≥ 90 | 100 | 100
3 | CS(=O)(=O)Oc1cccc2c1COC(c1csc(C3CCN(C(=O)Cc4cc(Cl)ccc4Cl)CC3)n1)OC2 (stereo not shown) [Compound 2-2, 4-[4-(6-methylsulfonyloxy-1,5-dihydro-3H-2,4-benzodioxepin-3-yl)-2-thiazolyl]-1-[2-(2,5-dichlorophenyl)acetyl]piperidine] | 100 | ≥ 90 | 100 | 100
4 | O=C(Cc1cc(Cl)ccc1Cl)N1CCC(c2nc(C3OCc4c(F)ccc(F)c4CO3)cs2)CC1 [Compound 2-4, 4-[4-(6,9-difluoro-1,5-dihydro-3H-2,4-benzodioxepin-3-yl)-2-thiazolyl]-1-[2-(2,5-dichlorophenyl)acetyl]piperidine] | 100 | ≥ 90 | 100 | 100
5 | Cc1ccc(C)c(NC(=O)N2CCC(c3nc(C4OCc5cccc(OS(C)(=O)=O)c5CO4)cs3)CC2)c1 (stereo not shown) [Compound 2-5, 4-[4-(6-methylsulfonyloxy-1,5-dihydro-3H-2,4-benzodioxepin-3-yl)-2-thiazolyl]-1-[N-(2,5-dimethylphenyl)carbamoyl]piperidine] | 100 | ≥ 90 | 100 | 100
6 | Cc1ccc(C)c(CC(=O)N2CCC(c3nc(C4OCc5cccc(F)c5CO4)cs3)CC2)c1 (stereo not shown) [Compound 2-7, 4-[4-(6-fluoro-1,5-dihydro-3H-2,4-benzodioxepin-3-yl)-2-thiazolyl]-1-[2-(2,5-dimethylphenyl)acetyl]piperidine] | 100 | ≥ 90 | 100 | 100
7 | Cc1ccc(C)c(CC(=O)N2CCC(c3nc(C4OCc5ccc(F)cc5CO4)cs3)CC2)c1 (stereo not shown) [Compound 2-10, 4-[4-(7-fluoro-1,5-dihydro-3H-2,4-benzodioxepin-3-yl)-2-thiazolyl]-1-[2-(2,5-dimethylphenyl)acetyl]piperidine] | 80 | ≥ 90 | 100 | 100
8 | Cc1ccc(C)c(CC(=O)N2CCC(c3nc(C4OCc5ccccc5C(C)O4)cs3)CC2)c1 (stereo not shown) [Compound 2-13, 4-[4-(1-methyl-1,5-dihydro-3H-2,4-benzodioxepin-3-yl)-2-thiazolyl]-1-[2-(2,5-dimethylphenyl)acetyl]piperidine] | 50 | ≥ 90 | 100 | 100
9 | Cc1ccc(C)c(CC(=O)N2CCC(c3nc(C4OCc5ccc([N+](=O)[O-])cc5CO4)cs3)CC2)c1 (stereo not shown) [Compound 2-18, 4-[4-(7-nitro-1,5-dihydro-3H-2,4-benzodioxepin-3-yl)-2-thiazolyl]-1-[2-(2,5-dimethylphenyl)acetyl]piperidine] | 100 | ≥ 90 | 100 | 100
10 | O=C(Cc1cc(Cl)ccc1Cl)N1CCC(c2nc(C3OCc4cccc(Br)c4CO3)cs2)CC1 (stereo not shown) [Compound 2-19, 4-[4-(6-bromo-1,5-dihydro-3H-2,4-benzodioxepin-3-yl)-2-thiazolyl]-1-[2-(2,5-dichlorophenyl)acetyl]piperidine] | 100 | ≥ 90 | 100 | 100
11 | COc1ccc(Cl)c2c1COC(c1csc(C3CCN(C(=O)Cc4cc(C)ccc4C)CC3)n1)OC2 (stereo not shown) [Compound 2-20, 4-[4-(6-chloro-9-methoxy-1,5-dihydro-3H-2,4-benzodioxepin-3-yl)-2-thiazolyl]-1-[2-(2,5-dimethylphenyl)acetyl]piperidine] | 100 | ≥ 90 | 100 | 100
12 | O=C(Cc1cc(Cl)ccc1Cl)N1CCC(c2nc(C3OCc4cccc(Cl)c4CO3)cs2)CC1 (stereo not shown) [Compound 2-22, 4-[4-(6-chloro-1,5-dihydro-3H-2,4-benzodioxepin-3-yl)-2-thiazolyl]-1-[2-(2,5-dichlorophenyl)acetyl]piperidine] | 100 | ≥ 90 | 100 | 100
13 | COc1ccc(Cl)c2c1COC(c1csc(C3CCN(C(=O)Cc4cc(Cl)ccc4Cl)CC3)n1)OC2 (stereo not shown) [Compound 2-23, 4-[4-(6-chloro-9-methoxy-1,5-dihydro-3H-2,4-benzodioxepin-3-yl)-2-thiazolyl]-1-[2-(2,5-dichlorophenyl)acetyl]piperidine] | 100 | ≥ 90 | 100 | 100
14 | O=C(Cc1cc(Cl)ccc1Cl)N1CCC(c2nc(C3OCc4c(F)c(F)c(F)c(F)c4CO3)cs2)CC1 [Compound 2-29, 4-[4-(6,7,8,9-tetrafluoro-1,5-dihydro-3H-2,4-benzodioxepin-3-yl)-2-thiazolyl]-1-[2-(2,5-dichlorophenyl)acetyl]piperidine] | 100 | ≥ 90 | 100 | 100
15 | Cc1ccc(C)c(CC(=O)N2CCC(c3nc(C4OCc5cccc([N+](=O)[O-])c5CO4)cs3)CC2)c1 (stereo not shown) [Compound 2-39, 4-[4-(6-nitro-1,5-dihydro-3H-2,4-benzodioxepin-3-yl)-2-thiazolyl]-1-[2-(2,5-dimethylphenyl)acetyl]piperidine] | 100 | ≥ 90 | 100 | 100
16 | COc1ccc(C)c2c1COC(c1csc(C3CCN(C(=O)Cc4cc(C)ccc4C)CC3)n1)OC2 (stereo not shown) [Compound 2-45, 4-[4-(6-methoxy-9-methyl-1,5-dihydro-3H-2,4-benzodioxepin-3-yl)-2-thiazolyl]-1-[2-(2,5-dimethylphenyl)acetyl]piperidine] | 90 | ≥ 90 | 100 | 100
